Article PMC6337475, “Optimization of Sequence, Display, and Mode of Operation of IgG-Binding Peptide Ligands to Develop Robust, High-Capacity Affinity Adsorbents That Afford High IgG Product Quality” (International Journal of Molecular Sciences, 2019)
Non-standard residues stand in square brackets, D forms with d. No end group written: not given here. Cit = NC(=O)NCCC[C@H](N)C(=O)O

Key:
human polyclonal IgG = assay: Batch adsorption isotherm (Langmuir fit); assay type: binding; conditions: peptide-TREN-WB resin, 0.1-12 mg/mL IgG in PBS pH 7.4, 2 h, room temperature, UV 280 nm
Procedure: The IgG-binding affinity of the ligand variants was initially measured via batch adsorption studies. Briefly, aliquots of peptide-TREN-WB resin were incubated with solutions of IgG in PBS in a range of concentration between 0.1 and 12 mg/mL; as the binding equilibrium was reached, the amount of IgG adsorbed on each resin aliquot was calculated based on the equilibrium concentration of IgG in solution, and the corresponding values were fitted to the Langmuir model: q=QmaxC/KD+C where in KD is the dissociation constant and Qmax the equilibrium binding capacity.
The adsorption of human polyclonal IgG by the HWRGWV-WB resins was measured at room temperature in a set of batch adsorption experiments. The resin was equilibrated with PBS, pH 7.4, and transferred into fritted tubes (50 µL of resin slurry per tube). Lyophilized IgG was dissolved in PBS, pH 7.4, at different concentrations ranging from 0.1 to 12 mg/mL. A volume of 1 mL of IgG solution was incubated with each of the resin aliquots for two hours, at room temperature, and under mild agitation. The supernatants were collected and quantified by UV-absorbance at 280 nm to determine the amount of IgG adsorbed by the resin and the corresponding equilibrium concentration of unbound IgG in solution, and the resulting data were fitted to a Langmuir isotherm.

DNA = DNA clearance (Quant-IT PicoGreen) in IgG1 purification from CHO supernatant; parameters: species or system Chinese Hamster Ovary (CHO); conditions: washing buffer PBS, pH 7.4; elution 0.1 M Na-acetate pH 4.5; TREN-WB adsorbent
Procedure: (§1) Further, the chromatographic fractions were analyzed using a HCP ELISA kit and a Quant-IT Picogreen dsDNA assay kit to determine the levels of host cell proteins (HCPs) and DNA, respectively.
The chromatographic fractions were first diafiltered against 10 mM Tris–HCl pH 7.5, using Amicon® centrifugal filters (3000 MWCO Millipore, Bedford, MA, USA). The DNA content in the fractions was determined by pico green assay using Quant-IT Picogreen dsDNA assay kit from Thermo Fisher Scientific (Philadelphia, PA, USA). Quantification was done as per the manufacturer’s protocol.

[1] = test system: CHO host cell proteins (HCPs); assay: Host cell protein clearance (HCP ELISA) in IgG1 purification from CHO supernatant; parameters: species or system Chinese Hamster Ovary (CHO); conditions: for HCP LRV: elution 0.1 M Na-acetate pH 4.5, TREN-WB adsorbent
Procedure: as §1
(§2) In this work, we have investigated the effect of pH of the elution buffer on the performance of HWRGWV-TREN-WB resin with a therapeutic monoclonal IgG1. Specifically, 0.1 M acetate buffer was used as a milder elution buffer (pH 4–5), while 0.1 M glycine HCl buffer was used for low pH elution (pH 2.5). The performance of the different buffers was evaluated in terms of HCP LRV in the eluted fraction, whose values are reported in Figure 5. The HCP clearance decreases at lower elution pH, which is however needed to ensure sufficient IgG yield. At pH 5, where a HCP LRV of 1.18 is obtained, only 75% of the bound IgG is eluted. […] Therefore, acetate buffer pH 4.5 was selected as elution buffer, as it offers the best combination of yield and purity.
The majority of CHO HCPs are acidic in nature and have an overall negative charge at the physiological conditions (PBS pH 7.4). Their non-specific binding to the positively charged ligand (the net charge of HWRGWV at pH 7 is +1.1) is likely of electrostatic nature. In order to lower the non-specific capture of HCPs, pre-elution wash conditions were optimized by exploring different compositions and pH values of the washing buffer. Specifically, the following conditions were utilized, 0.2 M sodium phosphate pH 6, 0.2 M sodium phosphate pH 7, PBS pH 7.4, 1 M NaCl in PBS at pH 7.4, and 0.1 M Tris HCl pH 9.
The host cell protein contents of the chromatographic fractions were determined using HCP ELISA kits from Cygnus Technologies (Southport, NC, USA). The high sensitivity protocol described by the manufacturer was used in the analysis. Briefly, the anti-CHO-coated microtiter wells were filled with 100 μL of standards and samples, and incubated on a rotator at 200 rpm for 1 h at room temperature. The wells were then washed three times with 300 μL washing buffer, and 100 μL of HRP-labeled anti-CHO antibody was added to each of the wells. After rinsing the wells, 100 μL of 3,3′,5,5′ tetramethyl benzidine (TMB) substrate solution was added to each well for 30 min at room temperature. The reaction was terminated by adding 100 μL of 0.5 M sulphuric acid. The amount of hydrolyzed substrate was measured by μQuant Microplate reader (BioTek Inc., Winooski, VT, USA) at 450 nm. A 4-parameter logistic fit was used to calculate the HCP (ng/mL) content in the chromatographic fractions. The HCP values determined in terms of ng/mL were converted into ng/mg of MAb to account for the dilution of fractions. The log reduction value (LRV) was determined as the log10 of the ratio of HCP in the load to the HCP in the elution fractions.

IgG = conditions: preliminary studies; cited from earlier work
Text: In this work the peptide and peptide variants have been conjugated to Workbeads base resin at varying ligand densities ...

Fc region of IgG = conditions: cited from earlier work
Text: Several chromatographic and non-chromatographic techniques have been proposed for the purification of Mabs, fc fusion proteins and bispecifics including efforts towards identifying alternatives to Protein A-based chromatography. While being regarded as the standard for antibody purification owing to their high affinity and selectivity, these ligands present limitations, including high cost and the potential release of immunogenic fragments. An additional issue with Protein A concerns the presence of antibody aggregates in eluted fraction and their poor selectivity ...

[2] = test system: polyclonal human IgG (monomer and aggregates); assay: Aggregate removal from heat-treated polyclonal IgG, SEC; conditions: 1 mg/mL IgG incubated 60 °C 10 min; PBS wash; elution pH 4.5; SEC (TSKgel G3000SW)
Procedure: The ability of HWRGWVC-TREN-WB to remove aggregates was further tested by using a polyclonal IgG solution. The formation of aggregates was induced by incubating a 1 mg/mL IgG solution at 60 °C for 10 min. The IgG solution containing aggregates was loaded onto the HWRGWVC-TREN-WB resin, followed by washing with PBS and elution at pH 4.5.
Further, a feed sample containing monomeric and aggregated polyclonal IgG was produced by incubating a 1 mg/mL solution of human IgG at 60 °C for 10 min. The solution was loaded onto the HWRGWVC-TREN-WB resin, followed by washing with PBS and elution at pH 4.5. The collected fractions were analyzed by size exclusion chromatography (SEC) using a TSKgel G3000SW column to determine the ratio of monomeric vs. aggregated IgG in both flow-through and elution fractions.

[3] = test system: therapeutic monoclonal IgG1; assay: Purification of monoclonal IgG1 from CHO cell culture supernatant: yield, loss and purity; conditions: SDS-PAGE
Procedure: To evaluate the effect of the spacer arm on the purity of the eluted product, the HWRGWV-WB adsorbents constructed with different spacer arms were utilized to purify a monoclonal IgG1 from a CHO cell culture supernatant. […] The collected fractions were analyzed by size exclusion chromatography to measure product yield (Table 2), and by SDS-PAGE to determine the overall product purity by densitometric analysis (Figure 4).
as §1, §2

Substance	Qmax (equilibrium binding capacity) (human polyclonal IgG) [mg·IgG/mL Adsorbent]	DNA LRV (DNA)	HCP LRV ([1]; washing buffer PBS, pH 7.4)	IgG binding capacity on agarose WorkBeads ACT (IgG)	binding region on IgG (Fc region of IgG)	selective capture of monomeric IgG vs aggregates [2]	HCP LRV ([1]; washing buffer 0.1 M Tris HCl, pH 9)	HCP removal during washing ([1]; washing buffer 0.2 M sodium phosphate at either pH 6 or 7)	HCP LRV ([1]; washing buffer 1 M NaCl in PBS, pH 7.4)	loss of IgG in washing buffer ([3]; wash 0.1 M Tris HCl, pH 9)	loss of IgG in washing buffer ([3]; wash 1 M NaCl in PBS pH 7.4)
Ac-HWRGWV [N-terminally acetylated variant of HWRGWV, tested as TREN-WB resin]	72	~4	1.38								
HWRGWV [tested as TREN-WB resin, coupled as HWRGWVC]	85	~4	1.04	higher IgG binding capacity as compared to polymethcarylate base resin	binds the Fc region of IgG	bind only monomeric IgG	1.39	did not afford any HCP removal during washing	1.22		
HWRGWVC [peptide HWRGWV with C-terminal cysteine, conjugated through its thiol group to iodoacetyl-WB resin]										not observed	minor loss of IgG in the washing buffer
HW[Cit]GWV	49	~4	1.58								
